Laboratory results: the NIST ThermoML archive (doi:10.1021/je0496140)

Assay: xn = mol fraction of the nth substance listed
Details: 101.33 kPa, Liquid

CCCCCl [1-chlorobutane] + CC(C)(C)O
Details	mass density [kg/m3]	viscosity [mPa·s]
298.15 K, x2 = 0.0966	–	0.442
298.15 K, x2 = 0.2	–	0.476
298.15 K, x2 = 0.2904	–	0.517
298.15 K, x2 = 0.3901	–	0.577
298.15 K, x2 = 0.4897	–	0.662
298.15 K, x2 = 0.5956	–	0.799
298.15 K, x2 = 0.6919	–	1
298.15 K, x2 = 0.8008	–	1.425
298.15 K, x2 = 0.8889	–	2.112
303.15 K, x2 = 0.0924	864.09	–
303.15 K, x2 = 0.0966	–	0.419
303.15 K, x2 = 0.1915	853.49	–
303.15 K, x2 = 0.2	–	0.449
303.15 K, x2 = 0.2758	844.75	–
303.15 K, x2 = 0.2904	–	0.486
303.15 K, x2 = 0.38	834.23	–
303.15 K, x2 = 0.3901	–	0.537
303.15 K, x2 = 0.481	824.02	–
303.15 K, x2 = 0.4897	–	0.611
303.15 K, x2 = 0.5729	814.91	–
303.15 K, x2 = 0.5956	–	0.727
303.15 K, x2 = 0.6749	804.89	–
303.15 K, x2 = 0.6919	–	0.892
303.15 K, x2 = 0.7778	795.09	–
303.15 K, x2 = 0.8008	–	1.232
303.15 K, x2 = 0.8889	–	1.752
303.15 K, x2 = 0.8938	784.46	–
308.15 K, x2 = 0.0966	–	0.397
308.15 K, x2 = 0.0969	857.96	–
308.15 K, x2 = 0.1912	847.87	–
308.15 K, x2 = 0.2	–	0.423
308.15 K, x2 = 0.2786	838.9	–
308.15 K, x2 = 0.2904	–	0.456
308.15 K, x2 = 0.3839	828.23	–
308.15 K, x2 = 0.3901	–	0.502
308.15 K, x2 = 0.4811	818.5	–
308.15 K, x2 = 0.4897	–	0.565
308.15 K, x2 = 0.5844	808.35	–
308.15 K, x2 = 0.5956	–	0.664
308.15 K, x2 = 0.6849	798.55	–
308.15 K, x2 = 0.6919	–	0.801
308.15 K, x2 = 0.7881	788.78	–
308.15 K, x2 = 0.8008	–	1.081
308.15 K, x2 = 0.8889	–	1.474
308.15 K, x2 = 0.8957	779.05	–
313.15 K, x2 = 0.093	852.6	–
313.15 K, x2 = 0.0966	–	0.378
313.15 K, x2 = 0.1869	842.51	–
313.15 K, x2 = 0.2	–	0.4
313.15 K, x2 = 0.2685	834.13	–
313.15 K, x2 = 0.2904	–	0.428
313.15 K, x2 = 0.3778	823.11	–
313.15 K, x2 = 0.3901	–	0.468
313.15 K, x2 = 0.4841	812.56	–
313.15 K, x2 = 0.4897	–	0.525
313.15 K, x2 = 0.5777	803.43	–
313.15 K, x2 = 0.5956	–	0.608
313.15 K, x2 = 0.6796	793.58	–
313.15 K, x2 = 0.6919	–	0.724
313.15 K, x2 = 0.7766	784.47	–
313.15 K, x2 = 0.8008	–	0.947
313.15 K, x2 = 0.8889	–	1.255
313.15 K, x2 = 0.8972	773.57	–
318.15 K, x2 = 0.0918	847.04	–
318.15 K, x2 = 0.0966	–	0.359
318.15 K, x2 = 0.1839	837.08	–
318.15 K, x2 = 0.2	–	0.38
318.15 K, x2 = 0.2674	828.47	–
318.15 K, x2 = 0.2904	–	0.404
318.15 K, x2 = 0.3797	817.22	–
318.15 K, x2 = 0.3901	–	0.439
318.15 K, x2 = 0.4809	807.29	–
318.15 K, x2 = 0.4897	–	0.488
318.15 K, x2 = 0.5799	797.62	–
318.15 K, x2 = 0.5956	–	0.56
318.15 K, x2 = 0.678	788.38	–
318.15 K, x2 = 0.6919	–	0.658
318.15 K, x2 = 0.7833	778.42	–
318.15 K, x2 = 0.8008	–	0.841
318.15 K, x2 = 0.8889	–	1.083
318.15 K, x2 = 0.8905	768.84	–
